Measurements as given in patent publication US20230349922A1, “H2 Blockers Targeting Liver Macrophages for the Prevention and Treatment of Liver Disease and Cancer” (Université de Strasbourg, priority 2020, published 2023).

What was measured:
[1] = system: M1-polarized THP-1 macrophages; assay: Cytokine expression by qRT-PCR in M1-polarized THP-1 macrophages; format: cell-based, human
Procedure: (§1) Real-Time qRT-PCR. cDNAs were synthetized by reverse transcription using SuperScript III First-Strand Synthesis SuperMix (Life Technologies). Expression of mouse IL6, TNFα and IL1β was analyzed by quantitative real-time PCR using TaqMan Gene Expression Assays (Thermo Fisher Scientific) on the CFX96 Touch Real-Time PCR Detection System PCR system (Bio-Rad). Expression of human CCL2 and TGF was analyzed using iTaq™ Universal SYBR® Green Supermix (Bio-Rad). The 2^−ΔCT method was used for relative quantification (Schmittgen and Livak, Nature Protoc., 2008, 3: 1101-1108) of mRNA with normalization to 18S. The 2^−ΔCT method was used for relative quantification (Schmittgen and Livak, Nature Protoc., 2008, 3: 1101-1108) of mRNA with normalization to GAPDH mRNA.
M1 Macrophage Polarization and HRH2 Blocker Treatment. THP1 cells were cultured in RPMI 1640 Medium with GlutaMAX™-I supplement and HEPES and supplemented with 10% FBS and gentamycin (0.05 mg/mL). M1 macrophage polarization from THP-1 was performed as previously described (Yeung et al., J. Hepatol., 2015, 62: 607-616). To generate MO THP-1 macrophages, THP1 cells were treated with PMA 320 nM for 24 hours. To generate M1-polarized THP-1 macrophages, THP-1 cells were treated with […] then with 100 ng/ml LPS and 20 ng/ml IFNγ for 18 hours. […]

[2] = system: tumor associated macrophages (TAMs); assay: IL6 expression in M1-polarized tumor associated macrophages from patient HCCs; format: cell-based, human; conditions: patient-derived tumor macrophages
Procedure: FIG. 5. Effect of Nizatidine and HRH2 KO on Cytokine Expression in a Cell Culture Model for M1 Macrophages. (A) Representative picture of differentiated macrophages. To generate macrophage-like cells (MO), THP-1 cells were treated with PMA for 24 hours. To generate M1-polarized THP-1 macrophages, THP-1 cells were treated with PMA plus LPS and IFNγ. M1-polarized THP-1 were treated with nizatidine for 48 hours. (B) Gene expression of different cytokines was measured by qRT-PCR. Results are expressed as mean+s.e.m from 3 independent experiments performed in triplicate. * denotes p<0.05; ** denotes p<0.01; *** denotes p<0.001. (C) Representative picture of M1 differentiated patient-derived Kupffer cells. To generate M1-polarized macrophages, patient Kupffer cells were treated with LPS and IFNγ. (D) Gene expression of different cytokines was measured by qRT-PCR. Results are expressed as mean+s.d. from one experiment performed in duplicate. (E) IL6 expression in M1-polarized tumor associated macrophages (TAMs) isolated from different patient HCCs and treated with nizatidine. Results are expressed as mean+/−SD from one experiment performed in triplicate or quadruplicate. […] KO efficacy was assessed at genetic level by T7 endonuclease assay. […] Right: Pro-inflammatory cytokines and markers expression were analyzed by qRT-PCR (mean+/−SD n=3, one representative experiment out of two is shown).

Huh7.5.1dif cells = assay: IL6 and TNFα expression by qRT-PCR in HCV-infected Huh7.5.1dif cells; format: cell-based, human
Procedure: FIG. 8. The Huh7.5.1^dif Cell-Based System Recapitulates Transcriptional Dysregulations in Human Macrophages. (A-B) HRH2 knockdown leads to CREB5 downregulation in Huh7.5.1^dif cells similar to macrophages. Macrophages (A) and Huh7.5.1^dif cells (B) were transfected with siRNA CTRL or targeting HRH2 expression and activated using LPS+IFNγ or HCV-infection respectively. HRH2, CREB5 expression and the HCV viral load were analyzed by qRT-PCR. (Macrophage=three independent experiments n=8; Huh7.5.1^dif cells=two independent experiments n=6). (C) Nizatidine treatment decreases IL6 and TNF expression in Huh7.5.1^dif cells similar to macrophage. Huh7.5.1^dif cells were HCV infected and treated with nizatidine. IL6 and TNFα expression were analyzed by qRT-PCR. […]
as §1, with “The 2^−ΔCT method was used for relative quantification (Schmittgen and Livak, Nature Protoc., 2008, 3: 1101-1108) of mRNA with normalization to GAPDH mRNA.” left out

[3] = system: primary human hepatocytes (PHH); assay: Cell viability of primary human hepatocytes in 3D culture; format: cell-based; conditions: 4 days after nizatidine treatment, compared to DMSO
Procedure: FIG. 9. Proof-of-concept for Therapeutic Impact of Nizatidine in Patient-Derived HCC Spheroids. (A) Absent effect on cell viability in PHH, assessed 4 days after nizatidine treatment in 3D culture. […] (B) Nizatidine decreases HCC cell viability in a 3D patient-derived tumorspheroid model. HCC spheroids were generated from patient HCC tissues with different etiologies. Cell viability was assessed 4 days after treatment by measuring ATP levels. […] The pictures show representative image of patient-derived tumorspheroids (magnification X40). NASH=non-alcoholic steatohepatitis; ALD=alcoholic liver disease. Source data are provided as a Source Data file.

[4] = activated THP1-derived macrophages

CNC(=C[N+](=O)[O-])NCCSCc1csc(CN(C)C)n1 [Nizatidine, N-[2-[[[2-[(dimethylamino)methyl]-4-thizaolyl]methyl]thio]ethyl]-N′-methyl-2-nitro-1,1-ethene-diamine]
pro-inflammatory cytokine expression ([1]; THP1-derived M1-polarized macrophages, nizatidine 48 hours): direct effect | IL6 expression [1, 4]: decreased | TNFα expression [1, 4]: decreased | pro-inflammatory cytokine expression (IL6) [2]: direct effect | IL6 expression (Huh7.5.1dif cells): decreased | TNFα expression (Huh7.5.1dif cells): decreased | PHH viability [3]: no effect
